Test results: the SangsterLogP compilation

Assay: method code SF, from Suwinski, J.; Salwinska, E.; Watras, J.; Widel, M. (1985). Nitroimidazoles. VI. Partition coefficients and tautomerism of simple nitroimidazoles. 42(4)352-358.

Structure (SMILES)	logP
Cc1nc(Br)c([N+](=O)[O-])n1C	0.87
Cn1cncc1[N+](=O)[O-]	0.13
COc1c([N+](=O)[O-])ncn1C	0.19
COc1[nH]cnc1[N+](=O)[O-]	0.13
Cc1nc(Br)n(C)c1[N+](=O)[O-]	0.82
Cc1nc([N+](=O)[O-])c(Cl)n1C	0.34
O=[N+]([O-])c1ncc[nH]1	0.11
Cc1nc([N+](=O)[O-])c(Br)[nH]1	1.14
Cn1cnc([N+](=O)[O-])c1Br	0.36
Cc1nc([N+](=O)[O-])cn1C	-0.24
Cc1nc(Cl)c([N+](=O)[O-])n1C	0.87
Cn1cnc(Br)c1[N+](=O)[O-]	0.77
Cn1cc([N+](=O)[O-])nc1Cl	0.19
Cn1c([N+](=O)[O-])cnc1Cl	0.62
Cn1cnc([N+](=O)[O-])c1N	-1
Cn1ccnc1[N+](=O)[O-]	-0.17
Cc1nc([N+](=O)[O-])c(N)n1C	-1.1
Cc1[nH]cnc1[N+](=O)[O-]	0.23
Cn1cnc(Cl)c1[N+](=O)[O-]	0.69
Cc1c([N+](=O)[O-])nc(Br)n1C	0.39
COc1[nH]c(C)nc1[N+](=O)[O-]	0.21
COc1c([N+](=O)[O-])nc(C)n1C	-0.09
Cc1[nH]c(Br)nc1[N+](=O)[O-]	0.86
Cc1c([N+](=O)[O-])ncn1C	-0.11
O=[N+]([O-])c1[nH]cnc1Br	0.78
Cc1nc([N+](=O)[O-])c(Br)n1C	0.44
Cc1nc([N+](=O)[O-])c(Cl)[nH]1	1.06
Cn1cc([N+](=O)[O-])nc1Br	0.33
Cn1cnc([N+](=O)[O-])c1	-0.44
